Here are results for nine compounds from ChEMBL document CHEMBL6071135, “New resorcylic acid derivatives of Lysimachia tengyuehensis against MRSA and VRE by interfering with bacterial metabolic imbalance” (Eur J Med Chem, 2024).

For series [1], the system named is Enterococcus faecalis. Put plainly: Drug resistance, ratio of MIC for vancomycin-resistant Enterococcus faecalis ATCC51299 after 20 days exposure to MIC for vancomycin-resistant Enterococcus faecalis ATCC51299 during first exposure. To be noted: time 20 day. Type of series: functional.
Series [2] deals with Enterococcus faecalis. Put plainly: Bactericidal activity against vancomycin-resistant Enterococcus faecalis ATCC51299 assessed as reduction in number of bacteria at 2 times MIC measured within 1 hr by time-kill assay. The series is classed as functional, organism-based.
Series [3] relates to Enterococcus faecalis. Put plainly: Antibacterial activity against vancomycin-resistant Enterococcus faecalis ATCC51299 measured after 24 hrs by CLSI based broth microdilution method. The series is classed as functional.
In series [4] the test system is Staphylococcus aureus. Briefly: Bactericidal activity against methicillin-resistant Staphylococcus aureus measured after 24 hrs by CLSI based broth microdilution method. Type of series: functional.
Series [5] concerns Enterococcus faecalis. Put plainly: Bactericidal activity against vancomycin-resistant Enterococcus faecalis ATCC51299 measured after 24 hrs by CLSI based broth microdilution method. The series is classed as functional.
Series [6] has as its system Staphylococcus aureus. Put plainly: Antibacterial activity against methicillin-resistant Staphylococcus aureus measured after 24 hrs by CLSI based broth microdilution method. Type of series: functional. For orientation: Dilution methods test growth across graded concentrations, often in twofold steps.
In series [7] the test system is Staphylococcus aureus. Briefly: Bactericidal activity against methicillin-resistant Staphylococcus aureus assessed as reduction in number of bacteria at 2 times MIC measured within 1 hr by time-kill assay. The series is classed as functional, organism-based.
Series [8] deals with Staphylococcus aureus. Briefly: Antibacterial activity against methicillin resistant Staphylococcus aureus infected in female Kunming mouse model of skin infection assessed as reduction in wound size at 8 mg/kg administered daily pre-infected for 4 hrs followed by compound administration for 7 days. The series is classed as functional, organism-based. As to conditions: time 7.0 day.

The subject of series [9] is Staphylococcus aureus. Briefly: Antibacterial activity against methicillin resistant Staphylococcus aureus infected in female Kunming mouse model of skin infection assessed as increase in neovascularization at 8 mg/kg administered daily pre-infected for 4 hrs followed by compound administration for 7 days. Type of series: functional, organism-based. To be noted: time 7.0 day.

The nature of series [10]: Toxicity in Kunming mouse assessed as morphological abnormalities at 8 mg/kg administered daily and measured after 7 days. The series is classed as organism-based. As to conditions: in vivo, 168 h, time 7 day.
The subject of series [11] is Staphylococcus aureus. Put plainly: Antibacterial activity against methicillin resistant Staphylococcus aureus infected in female Kunming mouse model of skin infection assessed as reduction in inflammatory cell infiltration at 8 mg/kg administered daily pre-infected for 4 hrs followed by compound administration for 7 days. As to conditions: time 7.0 day. The series is classed as functional, organism-based.

For series [12], the system named is Staphylococcus aureus. Briefly: Antibacterial activity against methicillin resistant Staphylococcus aureus infected in female Kunming mouse model of skin infection assessed as reduction in bacterial load of wound at 8 mg/kg administered daily pre-infected for 4 hrs followed by compound administration for 7 days. As to conditions: time 7.0 day. The series is classed as functional, organism-based.

The subject of series [13] is Staphylococcus aureus. Briefly: Antibacterial activity against methicillin resistant Staphylococcus aureus infected in female Kunming mouse model of skin infection assessed as suppression of purulent secretion at 8 mg/kg administered daily pre-infected for 4 hrs followed by compound administration for 7 days. Type of series: functional, organism-based. As to conditions: time 7.0 day.

The term MIC denotes the smallest concentration in the dilution series that meets the test's criterion for growth inhibition. Lower therefore signals a more susceptible organism. The MBC is the lowest tested concentration that kills the bacteria rather than only halting them. The low end stands for greater bactericidal potency, the high end for weaker bactericidal potency.

Each structure is given as a SMILES string. ≈ marks a conversion by molar mass, not a printed value. Calls of active or inactive are those of the source. Bounds are passed on as bounds.

For the compound `CC1(C)S[C@@H]2[C@H](NC(=O)[C@H](N)c3ccccc3)C(=O)N2[C@H]1C(=O)O` [AMPICILLIN], the “fold change (FC)” value in [1] is given as 4. For the same compound, the result in series [2] was inactive. The compound also came in with an MIC in [3] of 2 µg/mL (≈ 5.72 µM).
As to `CCCCCCCCCCCCc1cc(O)cc(O)c1C(=O)O`, the results for the MBC in [4] and in [5] were 8 µg/mL (≈ 24.8 µM) and 4 µg/mL (≈ 12.4 µM), respectively. The MIC came out at 4 µg/mL (≈ 12.4 µM) in series [3] and 8 µg/mL (≈ 24.8 µM) in series [6].
As for `COc1cccc(OC)c1C(=O)N[C@@H]1C(=O)N2[C@@H]1SC(C)(C)[C@@H]2C(=O)O` [METHICILLIN], the MIC in [6] is > 128 µg/mL.
Consider `CCCCCCCCCCCc1cc(O)cc(O)c1C(=O)O`, for which the MBC in [4] and in series [5] was 8 µg/mL (≈ 25.9 µM) in each case. The MIC in series [3] and in [6] was 8 µg/mL (≈ 25.9 µM) each time.
In the case of `CCCCCCCCCCCCCc1cc(O)cc(O)c1C(=O)O`, the MBC worked out at 4 µg/mL (≈ 11.9 µM) in [4] and 8 µg/mL (≈ 23.8 µM) in series [5]. Further, the MIC in series [3] was 8 µg/mL (≈ 23.8 µM); in [6], 4 µg/mL (≈ 11.9 µM).
On to `CCCCCCCCCCCCc1cc(O)cc(O)c1`, for which the MBC in series [4] was determined as 8 µg/mL (≈ 28.7 µM); in series [5], 4 µg/mL (≈ 14.4 µM). For the same compound, the values for the MIC in series [3] and in series [6] were 4 µg/mL (≈ 14.4 µM) and 8 µg/mL (≈ 28.7 µM), respectively.
Consider `CCCCCCCCCCCCCc1cc(O)cc(O)c1`, for which the MBC in series [4] and in series [5] was 4 µg/mL (≈ 13.7 µM) each time. Besides, the MIC in [3] and in series [6] was 4 µg/mL (≈ 13.7 µM) throughout.
As for `CN[C@H](CC(C)C)C(=O)N[C@H]1C(=O)N[C@@H](CC(N)=O)C(=O)N[C@H]2C(=O)N[C@H]3C(=O)N[C@H](C(=O)N[C@H](C(=O)O)c4cc(O)cc(O)c4-c4cc3ccc4O)[C@H](O)c3ccc(c(Cl)c3)Oc3cc2cc(c3O[C@@H]2O[C@H](CO)[C@@H](O)[C@H](O)[C@H]2O[C@H]2C[C@](C)(N)[C@H](O)[C@H](C)O2)Oc2ccc(cc2Cl)[C@H]1O` [VANCOMYCIN], the outcome in series [7] was inactive. In addition, the result in series [8], in series [9], in series [11], in series [12] and in series [13] was Active. In addition, the Activity result in series [10] is recorded as “Non-Toxic”.
As to `CCCCCCCCCCCCCCc1cc(O)cc(O)c1C(=O)O`, the MBC came to 4 µg/mL (≈ 11.4 µM) in series [4] and 8 µg/mL (≈ 22.8 µM) in [5]. Besides, the MIC in [3] and in series [6] was 4 µg/mL (≈ 11.4 µM) in each case.
